# In US20060058320A1, “[1,2,4] Triazolo[1,5-c]pyrimidine derivatives” (KYOWA HAKKO KOGYO CO., LTD., priority 2002, published 2006):
# Structures can show the parent of a compound that is named as a salt.
# System: CGS 21680-induced catalepsy
# Experiment: Activity on CGS 21680-induced catalepsy
# Assay type: in vivo, mice
# Conditions: Mus musculus, po, read-out: Remission ratio (%)
# Procedure: Parkinson's disease is a motor disorder based on degeneration and cell death of the nigrostriatal dopaminergic neurons. When CGS 21680 (adenosine A2A receptor agonist) is administered into the intracerebral ventricle, the inhibitory synaptic transmission of GABA in the medium sized spiny neurons in the corpus striatum is inhibited directly via the adenosine A2A receptor [Journal of Neuroscience, vol. 16, p. 605 (1996)]. Accordingly, it is concidered that the adenosine A2A receptor agonists positively regulate the output of the GABAergic neurons from the corpus striatum to the globus pallidus lateralis, and, as a result, catalepsy is induced by the administration of CGS 21680.
# The test was carried out using ten 5-week age male ddY mice (22-25 g in body weight, Japan SLC) per group. CGS 21680 (produced by RBI Co) was dissolved in physiological saline (produced by Otsuka Pharmaceutical Co., Ltd.), and 10 μg/20 μL of the solution was injected into mouse intracerebral ventricle. Each test compound was used by suspending it in distilled water containing 0.3% of polyoxylene (20) sorbitan monooleate (referred to as “Tween 80” hereinafter) (produced by Otsuka Pharmaceutical Co., Ltd.). The suspension containing each test compound or a solution containing no test Compound (distilled water containing 0.3% of Tween 80; used as a control) was orally administered (0.1 mL per 10 g of mouse body weight) 30 minutes before the injection of CGS 21680 into the intracerebral ventricle. One hour after the administration of the each test compound, only forelimbs or only hindlimbs of each mouse were laid on a vertically arranged stand made of acryl and having a size of 4.5 cm in height and 1.0 cm in width to measure catalepsy symptoms. All of the test compounds were administered orally in a dose of 10 mg/kg.
# The criteria of the catalepsy score are shown below.
# The effect was decided by a total catalepsy score of 10 mice in one group (the maximum score: 50 points). When the total score was 40 points or less, the activity of the compounds was decided positive. The number of the animals showing remission of catalepsy was expressed by the number of cases showing a catalepsy score of 4 points or less in 10 cases. The catalepsy remission ratio was expressed as the percentage of the total score in the test compound-administered group to the total score in the control group.
row,SMILES,inhibition in vivo at 10 mg/kg [%]
1,"Nc1nc(C(=O)N2CCC(Cc3ccccc3)CC2)cc2nc(-c3ccco3)nn12 [Compound 158, 5-Amino-2-(2-furyl)[1,2,4]triazolo[1,5-c]pyrimidin-7-yl 4-benzylpiperidino ketone]",86

# Same assay, conditions: Mus musculus, po; from total score of test group and control group; 10 mg/kg orally; read-out: Remission ratio (%)
row,SMILES,inhibition in vivo at 10 mg/kg [%]
1,"Nc1nc(C(=O)N2CCC(O)(Cc3ccccc3)CC2)cc2nc(-c3ccco3)nn12 [Compound 162, 5-Amino-2-(2-furyl)[1,2,4]triazolo[1,5-c]pyrimidin-7-yl 4-benzyl-4-hydroxypiperidino ketone]",72

# Same assay, conditions: cases with catalepsy score of 4 points or less in 10 cases; 10 mg/kg orally
row,SMILES,Number of animals showing remission
1,"Nc1nc(C(=O)N2CCC(O)(c3ccccc3)CC2)cc2nc(-c3ccco3)nn12 [Compound 150, 5-Amino-2-(2-furyl)[1,2,4]triazolo[1,5-c]pyrimidin-7-yl (4-hydroxy-4-phenyl)piperidino ketone]",8

# Same assay, conditions: from total score of test group and control group; 10 mg/kg orally
row,SMILES,Remission ratio (%)
1,"Nc1nc(C(=O)N2CCC(O)(c3ccccc3)CC2)cc2nc(-c3ccco3)nn12 [Compound 150, 5-Amino-2-(2-furyl)[1,2,4]triazolo[1,5-c]pyrimidin-7-yl (4-hydroxy-4-phenyl)piperidino ketone]",76

# Same assay, conditions: total catalepsy score of 10 mice (maximum 50 points; 40 points or less = positive); 10 mg/kg orally, one hour after administration
row,SMILES,Total score
1,"Nc1nc(C(=O)N2CCC(O)(c3ccccc3)CC2)cc2nc(-c3ccco3)nn12 [Compound 150, 5-Amino-2-(2-furyl)[1,2,4]triazolo[1,5-c]pyrimidin-7-yl (4-hydroxy-4-phenyl)piperidino ketone]",11
2,"Nc1nc(C(=O)N2CCC(Cc3ccccc3)CC2)cc2nc(-c3ccco3)nn12 [Compound 158, 5-Amino-2-(2-furyl)[1,2,4]triazolo[1,5-c]pyrimidin-7-yl 4-benzylpiperidino ketone]",7
3,"Nc1nc(C(=O)N2CCC(O)(Cc3ccccc3)CC2)cc2nc(-c3ccco3)nn12 [Compound 162, 5-Amino-2-(2-furyl)[1,2,4]triazolo[1,5-c]pyrimidin-7-yl 4-benzyl-4-hydroxypiperidino ketone]",13

# System: not given
# Experiment: not given
# Conditions: not given
row,SMILES,melting point
1,Nc1nc(COc2ccccc2)cc2nc(-c3ccco3)nn12,247.2 to 247.4 °C
2,Nc1nc(COc2cccc(Br)c2)cc2nc(-c3ccco3)nn12,261.5 to 261.9 °C
3,Nc1nc(-c2ccco2)cc2nc(-c3ccco3)nn12,250.2 to 250.4 °C
4,Nc1nc(C2=CCN(CC3CC3)CC2)cc2nc(-c3ccco3)nn12,196.9 to 197.4 °C
5,CC(C)(O)CN1CC=C(c2cc3nc(-c4ccco4)nn3c(N)n2)CC1,197.8 to 198.1 °C
6,CC(=O)NCCNC(=O)c1cc2nc(-c3ccco3)nn2c(N)n1,233.8 to 234 °C
7,CN(C)CCN(Cc1ccccc1)C(=O)c1cc2nc(-c3ccco3)nn2c(N)n1,215.2 to 215.4 °C
8,Nc1nc(C(=O)NCC2CCCCC2)cc2nc(-c3ccco3)nn12,273.5 to 274 °C
9,Nc1nc(C2=CCN(CC(F)(F)F)CC2)cc2nc(-c3ccco3)nn12,247.5 to 248.2 °C (dec.)
10,"Nc1nc(/C=C/CNCC2CC2)cc2nc(-c3ccco3)nn12 (as salt: HCl) [Compound 68, 5-Amino-7-[3-(cyclopropylmethylamino)-(E)-propan-1-en-1-yl]-2-(2-furyl)[1,2,4]triazolo[1,5-c]pyrimidine]",263.5 to 264.2 °C
11,"CN(Cc1ccccc1)C(=O)c1cc2nc(-c3ccco3)nn2c(N)n1 (as salt: HCl) [Compound 78, 5-Amino-2-(2-furyl)[1,2,4]triazolo[1,5-c]pyrimidine-7-carboxylic acid (N-benzyl-N-methyl)amide]",188.5 to 189.1 °C
12,CCN1CCN(Cc2ccc(-c3cc4nc(-c5ccco5)nn4c(N)n3)cc2)CC1 (as salt: hydrochloride),265 °C (dec.)
13,COc1ccc(CNCc2ccc(-c3cc4nc(-c5ccco5)nn4c(N)n3)cc2)cc1OC (as salt: hydrochloride),256.2 to 256.8 °C
14,CCN1CCN(Cc2ccccc2-c2cc3nc(-c4ccco4)nn3c(N)n2)CC1 (as salt: hydrochloride),253 to 253.4 °C
15,COc1cc(CNCc2ccccc2-c2cc3nc(-c4ccco4)nn3c(N)n2)cc(OC)c1 (as salt: hydrochloride),213.5 to 214.3 °C
16,"CC(=O)NCCNCc1ccccc1-c1cc2nc(-c3ccco3)nn2c(N)n1 (as salt: hydrochloride) [Compound 7, 5-Amino-7-{2-[2-(N-acetylamino)ethylaminomethyl]phenyl}-2-(2-furyl)[1,2,4]triazolo[1,5-c]pyrimidine monohydrochloride]",230.8 to 231.3 °C
17,"Nc1nc(-c2ccc(CNCCCN3CCCC3=O)cc2)cc2nc(-c3ccco3)nn12 (as salt: hydrochloride) [Compound 14, 5-Amino-2-(2-furyl)-7-{4-[3-(2-oxopyrrolidin-1-yl)propylaminomethyl]phenyl}[1,2,4]triazolo[1,5-c]pyrimidine monohydrochloride]",269.2 to 269.8 °C
18,"CC(=O)NCCNCc1ccc(-c2cc3nc(-c4ccco4)nn3c(N)n2)cc1 (as salt: hydrochloride) [Compound 16, 7-{4-[2-(N-acetylamino)ethylaminomethyl]phenyl}-5-amino-2-(2-furyl)[1,2,4]triazolo[1,5-c]pyrimidine monohydrochloride]",238.5 to 240 °C
19,"COc1cc(CNCc2ccc(-c3cc4nc(-c5ccco5)nn4c(N)n3)cc2)cc(OC)c1 (as salt: hydrochloride) [Compound 17, 5-Amino-7-[4-(3,5-dimethoxybenzylaminomethyl)phenyl]-2-(2-furyl)[1,2,4]triazolo[1,5-c]pyrimidine monohydrochloride]",224.6 to 225.2 °C
20,"COc1ccc(CNCc2cc3nc(-c4ccco4)nn3c(N)n2)cc1OC (as salt: hydrochloride) [Compound 42, 5-Amino-7-(3,4-dimethoxybenzylaminomethyl)-2-(2-furyl)-[1,2,4]triazolo[1,5-c]pyrimidine dihydrochloride]",241.2 to 241.5 °C
21,"COc1cc(CNCc2cc3nc(-c4ccco4)nn3c(N)n2)cc(OC)c1 (as salt: hydrochloride) [Compound 43, 5-Amino-7-[(3,5-dimethoxybenzylamino)methyl]-2-(2-furyl)-[1,2,4]triazolo[1,5-c]pyrimidine dihydrochloride]",238.5 to 238.7 °C
22,"Nc1nc(CNCCc2ccccn2)cc2nc(-c3ccco3)nn12 (as salt: hydrochloride) [Compound 44, 5-Amino-7-[2-(2-pyridyl)ethylaminomethyl]-2-(2-furyl)-[1,2,4]triazolo[1,5-c]pyrimidine dihydrochloride]",249.5 to 249.7 °C
23,"Nc1nc(CNCCCN2CCCC2=O)cc2nc(-c3ccco3)nn12 (as salt: hydrochloride) [Compound 47, 5-Amino-2-(2-furyl)-7-[3-(2-oxopyrrolidin-1-yl)propylamino-methyl][1,2,4]triazolo[1,5-c]pyrimidine dihydrochloride]",229.1 to 229.8 °C
24,"CCN1CCN(Cc2cc3nc(-c4ccco4)nn3c(N)n2)CC1 (as salt: hydrochloride) [Compound 48, 5-Amino-7-(4-ethylpiperazin-1-ylmethyl)-2-(2-furyl)[1,2,4]-triazolo[1,5-c]pyrimidine trihydrochloride]",262 to 262.4 °C
25,"Nc1nc(CN2CCN(CC3CC3)CC2)cc2nc(-c3ccco3)nn12 (as salt: hydrochloride) [Compound 50, 5-Amino-7-[4-(cyclopropylmethyl)piperazin-1-ylmethyl]-2-(2-furyl)[1,2,4]triazolo[1,5-c]pyrimidine dihydrochloride]",270 °C (dec.)
26,"COCC(C)NCc1ccccc1-c1cc2nc(-c3ccco3)nn2c(N)n1 (racemic) (as salt: hydrochloride) [Compound 9, (±)-5-Amino-2-(2-furyl)-7-[{2-[(2-methoxy-1-methylethyl)aminomethyl]phenyl}(1,2,4]triazolo[1,5-c]pyrimidinemonohydrochloride]",178.9 to 179.7 °C
27,"Nc1nc(-c2ccccc2C=O)cc2nc(-c3ccco3)nn12 [Compound 2, 5-Amino-7-(2-formylphenyl)-2-(2-furyl)[1,2,4]triazolo[1,5-c]pyrimidine]",224 to 224.5 °C
28,"COc1ccc(CNCc2ccccc2-c2cc3nc(-c4ccco4)nn3c(N)n2)cc1OC [Compound 3, 5-Amino-7-[2-(3,4-dimethoxybenzylaminomethyl)phenyl]-2-(2-furyl) [1,2,4]triazolo[1,5-c]pyrimidine]",168 to 168.7 °C
